Laboratory results: patent publication US6172079A, “5-substituted-3-oxadiazolyl-1,6-naphthyridin-2(1H)-one derivatives” (Dainippon Pharmaceutical Co., Ltd., priority 1997, dated 2001)

These molecules were tested on GABAA receptor complex (TBPS binding) (assay: TBPS Binding Assay). Conditions: [35S]TBPS 0.4 nM, GABA 1 μM, rat cerebral cortex membrane, +% inverse agonistic, 0% antagonistic.
Set-up: species or system Wistar rats
Experimental: The TBPS (t-butylbicyclophosphonothionate) binding assay and the preparation of the membrane specimen were done in a similar manner to the method of Biggio, G. et al. [cf. European Journal of Pharmacology, vol.
That is, to the cerebral cortex was added a 50-fold volume of an ice-cooled buffer (a 50 mM Tris-citrate buffer containing 100 mM sodium chloride, pH 7.4) and the mixture was homogenized at 0-4° C. and then centrifuged at 20,000 g for 20 minutes. The pellets thus obtained were once subjected to homogenization in a buffer and centrifugation by the same procedure as above and then kept in freezed state at -80° C. for more than 20 hours. On the test day, the freezed pellets were thawed and then subjected twice to the homogenization-centrifugation procedure as described above.
Subsequently, the filter was moved into a liquid scintillation vial and thereto was added a liquid scintillation cocktail (ACS-II, manufactured by Amersham, USA, 10 ml) and allowed to stand for a fixed period of time. […] Separately, the same procedures were repeated in the presence of Picrotoxin to determine the non-specific binding amount. The non-specific binding amount was deducted from the total binding amount to give the specific binding amount. The binding activity of the test compound was calculated by a variation rate, i.e., a rate of the specific binding amount of the test compound to the specific binding amount in control (using a solvent).

SMILES	TBPS binding Variation Rate [%]
Cc1nc(-c2cc3c(C)nccc3[nH]c2=O)no1 [Example 2]	53
Cc1nc(-c2cc3c(-c4ccc(Cl)cc4)nccc3[nH]c2=O)no1 [Example 8]	13
CCc1nc(-c2cc3c(C)nccc3[nH]c2=O)no1 [Example 13]	24

Each molecule was assayed against benzodiazepine receptor (assay: Benzodiazepine Receptor Binding Assay). Conditions: read-out: BZP-receptor Binding IC50; [3H]-diazepam 1.5 nM; rat brain crude synaptosome membrane; 0° C., 20 min.

SMILES	IC50 [nM]
Cc1nccc2[nH]c(=O)c(-c3noc(C4CC4)n3)cc12 [Example 1, 3-(5-cyclopropyl-1,2,4-oxadiazol-3-yl)-5-methyl-1,6-naphthyridin-2(1H)-one]	2.28
Cc1cccc(-c2nccc3[nH]c(=O)c(-c4noc(C)n4)cc23)c1 [Example 9]	1.62
Cc1ccc(-c2nccc3[nH]c(=O)c(-c4noc(C)n4)cc23)cc1 [Example 10]	8.08
CCc1nc(-c2cc3cnccc3[nH]c2=O)no1 [Example 12]	7.89
CCCc1nccc2[nH]c(=O)c(-c3noc(CC)n3)cc12 [Example 15]	6.16
CCCCc1nccc2[nH]c(=O)c(-c3noc(CC)n3)cc12 [Example 19]	6.37
CCCCCc1nccc2[nH]c(=O)c(-c3noc(CC)n3)cc12 [Example 22]	3.76
CCc1nc(-c2cc3c(C4CC=CCC4)nccc3[nH]c2=O)no1 (stereo not drawn) [Example 25]	1.84
CCc1nc(-c2cc3c(-c4ccccc4)nccc3[nH]c2=O)no1 [Example 26]	0.67
CCc1nc(-c2cc3c(-c4cccc(F)c4)nccc3[nH]c2=O)no1 [Example 27]	0.96
CCc1nc(-c2cc3c(-c4ccc(F)cc4)nccc3[nH]c2=O)no1 [Example 28]	1.25
CCc1nc(-c2cc3c(-c4cccc(Cl)c4)nccc3[nH]c2=O)no1 [Example 29]	5.28
CCc1nc(-c2cc3c(-c4cccc(C)c4)nccc3[nH]c2=O)no1 [Example 31]	1.64
CCc1nc(-c2cc3c(-c4ccc(C)cc4)nccc3[nH]c2=O)no1 [Example 32]	3.29
CCc1nc(-c2cc3c(-c4ccc(OC)cc4)nccc3[nH]c2=O)no1 [Example 33]	5.5
CCCc1nc(-c2cc3c(C4CC4)nccc3[nH]c2=O)no1 [Example 37]	3.91
CCCc1nc(-c2cc3c(-c4cccc(F)c4)nccc3[nH]c2=O)no1 [Example 39]	2.86
CCCc1nc(-c2cc3c(-c4ccc(F)cc4)nccc3[nH]c2=O)no1 [Example 40]	7.45
CC(C)c1nc(-c2cc3c(C4CC4)nccc3[nH]c2=O)no1 [Example 44]	2.62
CC(C)c1nc(-c2cc3c(-c4cccc(F)c4)nccc3[nH]c2=O)no1 [Example 46]	2.15
CCCc1nccc2[nH]c(=O)c(-c3noc(C4CC4)n3)cc12 [Example 49]	1.11
O=c1[nH]c2ccnc(C3CC3)c2cc1-c1noc(C2CC2)n1 [Example 51]	0.79
O=c1[nH]c2ccnc(-c3ccc(F)cc3)c2cc1-c1noc(C2CC2)n1 [Example 54]	1.21
O=c1[nH]c2ccnc(-c3ccc(Cl)cc3)c2cc1-c1noc(C2CC2)n1 [Example 56]	2.71
Cc1cccc(-c2nccc3[nH]c(=O)c(-c4noc(C5CC5)n4)cc23)c1 [Example 57]	1.55
COc1ccc(-c2nccc3[nH]c(=O)c(-c4noc(C5CC5)n4)cc23)cc1 [Example 59]	1.98

SMILES	IC50 [nM]
C=C(C)c1nc(-c2cc3c(C4CC4)nccc3[nH]c2=O)no1 [Example 60]	2.01
C=Cc1nc(-c2cc3c(C4CC4)nccc3[nH]c2=O)no1 [Example 61]	1.04
CCc1nc(-c2cc3c(-c4ccccc4C)nccc3[nH]c2=O)no1 [Example 97]	4.64
CCc1nc(-c2cc3c(-c4ccccc4OC)nccc3[nH]c2=O)no1 [Example 98]	8.56
CCc1nc(-c2cc3c(-c4cccc(OC)c4)nccc3[nH]c2=O)no1 [Example 99]	1.67
CCc1nc(-c2cc3c(-c4ccc(Cl)s4)nccc3[nH]c2=O)no1 [Example 104]	5.18
CCCc1nc(-c2cc3c(-c4ccccc4F)nccc3[nH]c2=O)no1 [Example 108]	2.14
CCCc1nc(-c2cc3c(-c4ccco4)nccc3[nH]c2=O)no1 [Example 109]	1.75
CCCc1nc(-c2cc3c(-c4cccs4)nccc3[nH]c2=O)no1 [Example 110]	1.16
CCCc1nc(-c2cc3c(-c4ccsc4)nccc3[nH]c2=O)no1 [Example 111]	2.06
CC(C)c1nc(-c2cc3c(-c4ccccc4F)nccc3[nH]c2=O)no1 [Example 112]	2.68
CC(C)c1nc(-c2cc3c(-c4ccco4)nccc3[nH]c2=O)no1 [Example 113]	2.18
CC(C)c1nc(-c2cc3c(-c4cccs4)nccc3[nH]c2=O)no1 [Example 114]	1.08
CC(C)c1nc(-c2cc3c(-c4ccsc4)nccc3[nH]c2=O)no1 [Example 115]	1.52
O=c1[nH]c2ccnc(-c3ccccc3F)c2cc1-c1noc(C2CC2)n1 [Example 116]	1.17
O=c1[nH]c2ccnc(-c3ccccc3Cl)c2cc1-c1noc(C2CC2)n1 [Example 117]	1.41
Cc1ccccc1-c1nccc2[nH]c(=O)c(-c3noc(C4CC4)n3)cc12 [Example 118]	1.28
COc1ccccc1-c1nccc2[nH]c(=O)c(-c3noc(C4CC4)n3)cc12 [Example 119]	2.53
COc1cccc(-c2nccc3[nH]c(=O)c(-c4noc(C5CC5)n4)cc23)c1 [Example 120]	1.59
O=c1[nH]c2ccnc(-c3ccco3)c2cc1-c1noc(C2CC2)n1 [Example 121]	0.78
O=c1[nH]c2ccnc(-c3cccs3)c2cc1-c1noc(C2CC2)n1 [Example 122]	0.87
CCCCc1nccc2[nH]c(=O)c(-c3nc(CC)no3)cc12 [Example 195]	4.01
CCc1noc(-c2cc3c(C4CCCCC4)nccc3[nH]c2=O)n1 [Example 197]	1.97
CCc1noc(-c2cc3c(-c4ccccc4F)nccc3[nH]c2=O)n1 [Example 199]	1.55
CCc1noc(-c2cc3c(-c4ccc(F)cc4)nccc3[nH]c2=O)n1 [Example 201]	1.84
CCc1noc(-c2cc3c(-c4ccc(Cl)cc4)nccc3[nH]c2=O)n1 [Example 204]	5.51

SMILES	IC50 [nM]
CCc1noc(-c2cc3c(-c4ccccc4C)nccc3[nH]c2=O)n1 [Example 205]	4.77
CCc1noc(-c2cc3c(-c4ccc(C)cc4)nccc3[nH]c2=O)n1 [Example 207]	3.42
CCc1noc(-c2cc3c(-c4ccccc4OC)nccc3[nH]c2=O)n1 [Example 208]	4.14
CCc1noc(-c2cc3c(-c4cccc(OC)c4)nccc3[nH]c2=O)n1 [Example 209]	1.28
CCCc1noc(-c2cc3c(C4CC4)nccc3[nH]c2=O)n1 [Example 215]	2.47
CCCc1noc(-c2cc3c(-c4ccccc4)nccc3[nH]c2=O)n1 [Example 216]	1.17
CCCc1noc(-c2cc3c(-c4ccccc4F)nccc3[nH]c2=O)n1 [Example 217]	1.34
CCCc1noc(-c2cc3c(-c4cccc(F)c4)nccc3[nH]c2=O)n1 [Example 218]	2.58
CCCc1noc(-c2cc3c(-c4ccc(F)cc4)nccc3[nH]c2=O)n1 [Example 219]	2.03
CCCc1noc(-c2cc3c(-c4cccs4)nccc3[nH]c2=O)n1 [Example 221]	0.72
CCCc1noc(-c2cc3c(-c4ccsc4)nccc3[nH]c2=O)n1 [Example 222]	1.49
CC(C)c1noc(-c2cc3c(-c4ccccc4)nccc3[nH]c2=O)n1 [Example 225]	2.12
CC(C)c1noc(-c2cc3c(-c4ccccc4F)nccc3[nH]c2=O)n1 [Example 226]	1.41
CC(C)c1noc(-c2cc3c(-c4cccc(F)c4)nccc3[nH]c2=O)n1 [Example 227]	1.46
CC(C)c1noc(-c2cc3c(-c4cccs4)nccc3[nH]c2=O)n1 [Example 230]	0.9
CC(C)c1noc(-c2cc3c(-c4ccsc4)nccc3[nH]c2=O)n1 [Example 231]	0.71
Cc1nccc2[nH]c(=O)c(-c3nc(C4CC4)no3)cc12 [Example 232]	6.48
O=c1[nH]c2ccnc(C3CC3)c2cc1-c1nc(C2CC2)no1 [Example 234]	0.84
O=c1[nH]c2ccnc(-c3ccccc3)c2cc1-c1nc(C2CC2)no1 [Example 235]	0.91
O=c1[nH]c2ccnc(-c3ccccc3F)c2cc1-c1nc(C2CC2)no1 [Example 236]	1.61
O=c1[nH]c2ccnc(-c3cccc(F)c3)c2cc1-c1nc(C2CC2)no1 [Example 237]	1.86
O=c1[nH]c2ccnc(-c3ccc(F)cc3)c2cc1-c1nc(C2CC2)no1 [Example 238]	1.38
Cc1ccccc1-c1nccc2[nH]c(=O)c(-c3nc(C4CC4)no3)cc12 [Example 242]	1.87
Cc1cccc(-c2nccc3[nH]c(=O)c(-c4nc(C5CC5)no4)cc23)c1 [Example 243]	1.81
O=c1[nH]c2ccnc(-c3cccs3)c2cc1-c1nc(C2CC2)no1 [Example 246]	1.46
CCc1nnc(-c2cc3c(-c4ccccc4)nccc3[nH]c2=O)o1 [Example 311]	1.91
